Test results reported in ChEMBL document CHEMBL1201862, “PubChem BioAssay data set” (2004).
Calls of active or inactive are those of the source.

What was measured:
[1] = NIH-3T3 fibroblast cytotoxicity, dose response, cytotoxicity control for antifungal single agent project, cell-based, Alamar Blue, dry powder (AID 602188); assay type: functional
[2] = molecular target: ATP-binding cassette sub-family B member 6 (Homo sapiens, UniProt Q9NP58); assay: ABCB6 transporter inhibitors, dose response, K562-ABCB6 cells, flow cytometry, cherry pick 1 (AID 623955); assay type: functional; details: read-out: EC50_MICROM
[3] = molecular target: T1, Neuropeptides B/W receptor type 1 (Homo sapiens, UniProt P48145); assay: GPR7 antagonist potency, late-stage follow-up, cell-based, fluorescence, dose response, set 5 (AID 588566); assay type: functional
T1 sequence (P48145 whole entry): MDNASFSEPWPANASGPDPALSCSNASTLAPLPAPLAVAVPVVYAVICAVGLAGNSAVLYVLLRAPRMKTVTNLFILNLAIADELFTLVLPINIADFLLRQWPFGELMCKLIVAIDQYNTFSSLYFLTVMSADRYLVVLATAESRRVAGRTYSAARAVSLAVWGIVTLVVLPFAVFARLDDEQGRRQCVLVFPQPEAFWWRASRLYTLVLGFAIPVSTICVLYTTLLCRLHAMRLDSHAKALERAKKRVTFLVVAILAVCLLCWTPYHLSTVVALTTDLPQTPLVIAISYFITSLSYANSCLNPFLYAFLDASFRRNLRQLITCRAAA

[4] = molecular target: Melanin-concentrating hormone receptor 1 (Homo sapiens, UniProt Q99705); assay: Late-stage fluorescence-based counterscreen for antagonists of the G-protein coupled receptor 7 (GPR7): cell-based dose response assay to identify antagonists of the melanin-concentrating hormone receptor 1 (MCHR1) Set 5.; assay type: functional
[5] = AlphaScreen signal interference compounds, dose response, artefact control for ARNT-TACC3 interaction inhibitor project, biochemical, luminescence, cherry-pick (AID 651705); assay type: functional;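 further: AlphaScreen bead proximity signal that flags compounds interfering with the detection technology; potency reflects signal decrease which marks the compound as an assay artifact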
Nonstructural protein 1 = Nonstructural protein 1 (Influenza A virus, UniProt Q194T2); assay type: functional, Influenza A virus (A/California/07/2009(H1N1))
Interleukin-8 = Interleukin-8 (Homo sapiens, UniProt P10145); assay: Dose Response confirmation of uHTS small molecule hits for cystic fibrosis induced NFkb Inhibitors in a PAF-induced IL8 counterscreen.; assay type: functional; details: read-out: IC50_Mean
Sequence of Interleukin-8 (P10145 whole entry): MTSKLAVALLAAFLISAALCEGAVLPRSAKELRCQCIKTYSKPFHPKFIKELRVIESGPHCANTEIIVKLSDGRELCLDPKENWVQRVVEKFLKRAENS

Sequence of Melanin-concentrating hormone receptor 1 (Q99705 whole entry): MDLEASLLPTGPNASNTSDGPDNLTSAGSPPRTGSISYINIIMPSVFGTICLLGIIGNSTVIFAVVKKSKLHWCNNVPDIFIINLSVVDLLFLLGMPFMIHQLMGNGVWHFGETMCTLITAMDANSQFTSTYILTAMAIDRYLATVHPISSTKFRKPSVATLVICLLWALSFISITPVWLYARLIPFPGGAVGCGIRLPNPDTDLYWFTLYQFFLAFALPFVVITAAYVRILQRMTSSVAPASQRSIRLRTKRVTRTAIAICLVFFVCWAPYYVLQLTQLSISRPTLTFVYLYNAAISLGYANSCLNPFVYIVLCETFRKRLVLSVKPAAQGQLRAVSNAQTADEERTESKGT
Sequence of ATP-binding cassette sub-family B member 6 (Q9NP58 whole entry): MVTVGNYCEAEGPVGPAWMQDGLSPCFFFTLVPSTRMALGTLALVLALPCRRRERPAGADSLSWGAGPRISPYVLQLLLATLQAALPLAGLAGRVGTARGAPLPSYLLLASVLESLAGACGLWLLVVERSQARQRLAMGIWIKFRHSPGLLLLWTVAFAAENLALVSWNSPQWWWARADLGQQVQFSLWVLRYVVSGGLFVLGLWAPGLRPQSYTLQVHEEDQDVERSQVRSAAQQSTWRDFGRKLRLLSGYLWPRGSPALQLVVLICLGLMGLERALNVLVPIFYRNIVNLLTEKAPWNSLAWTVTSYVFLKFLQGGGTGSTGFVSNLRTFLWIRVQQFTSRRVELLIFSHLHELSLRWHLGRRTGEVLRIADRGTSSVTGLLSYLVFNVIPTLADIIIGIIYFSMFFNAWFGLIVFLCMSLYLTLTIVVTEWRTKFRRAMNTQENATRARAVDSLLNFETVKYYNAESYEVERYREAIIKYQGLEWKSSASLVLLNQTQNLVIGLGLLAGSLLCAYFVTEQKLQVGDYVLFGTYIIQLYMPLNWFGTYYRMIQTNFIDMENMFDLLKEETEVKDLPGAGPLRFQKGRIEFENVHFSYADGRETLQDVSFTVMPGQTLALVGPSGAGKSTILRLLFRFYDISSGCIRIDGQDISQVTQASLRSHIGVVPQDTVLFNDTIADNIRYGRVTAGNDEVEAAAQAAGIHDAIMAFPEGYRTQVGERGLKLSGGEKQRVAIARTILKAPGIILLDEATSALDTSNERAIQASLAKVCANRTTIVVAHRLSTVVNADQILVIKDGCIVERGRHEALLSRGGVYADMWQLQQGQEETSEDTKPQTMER
Sequence of Nonstructural protein 1 (Q194T2 whole entry): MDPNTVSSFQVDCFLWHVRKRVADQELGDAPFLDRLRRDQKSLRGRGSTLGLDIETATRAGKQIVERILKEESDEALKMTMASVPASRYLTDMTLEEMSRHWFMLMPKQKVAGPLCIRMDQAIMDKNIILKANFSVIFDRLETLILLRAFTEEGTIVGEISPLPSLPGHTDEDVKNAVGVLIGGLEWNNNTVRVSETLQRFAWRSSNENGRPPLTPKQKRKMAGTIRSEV

Compound: O=C(Nc1nc(-c2ccccn2)cs1)c1ccccc1
- AC50 [1]: 7.19 µM (active)

Compound: C[N+](C)(C)CC1CCCC(C[N+](C)(C)C)C1=O (centres undefined)
- EC50 [2]: 4.14 µM (active)

Compound: CSc1ccc(Oc2cnn(Cc3cccc4ccccc34)c(=O)c2Cl)cc1
- IC50 [3]: 4.59 µM (active)
- IC50 [4]: 9.04 µM (active)

Compound: O=C(C1CCCCN1Cc1cccc2ccccc12)N1CCN(c2ccc([N+](=O)[O-])cc2)CC1 (centres undefined)
- IC50 [3]: > 20 µM (inactive)
- IC50 [4]: > 20 µM (inactive)

Compound: COc1cc([N+](=O)[O-])cc(/C=N/NC(=O)Cn2cncn2)c1O
- AC50 [5]: 85 µM (active)
- IC50 (Nonstructural protein 1): 10.1 µM (active)

Compound: Cc1ccc2occ(/C=N/NC(=O)c3ccccc3Br)c(=O)c2c1
- IC50 (Interleukin-8): 3.77 µM (active)
